What follows are compounds tested on p-IKKa levels in L363 (NIK translocated multiple myeloma) cells (assay: Assay 2: Effect of compounds on p-IKKa levels in L363 (NIK translocated multiple myeloma) cells). Settings: Homo sapiens, L-363, 6 h, read-out: Assay 2 IC50 (nM), p-IKKa (Ser 176/180) in BAFF stimulated L363 cells with MG132, 6 h; average if tested more than once.
Assay type: cell-based
In short: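 L363 cells incubated overnight ± 250 ng/ml BAFF, then 6 h at 37 °C with compound (0.3% DMSO) ± 10 μM MG132. Lysates assayed for p-IKKa (Ser176/180) by AlphaLISA SureFire. IC50 from sigmoidal fit of % inhibition normalized to BAFF/MG132-stimulated and unstimulated controls.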

| Compound | IC50 [nM] |
| --- | --- |
| Cc1nccc(Nc2nccc(-c3cccc(-n4cc([C@]5(O)CCN(C)C5=O)nn4)n3)n2)c1F [Example 326, (R)-3-(1-(6-(2-((3-Fluoro-2-methylpyridin-4-yl)amino)pyrimidin-4-yl)pyridin-2-yl)-1H-1,2,3-triazol-4-yl)-3-hydroxy-1-methylpyrrolidin-2-one] | < 50 |
| C[C@@H](CF)Nc1nccc(-c2cccc(-c3cc([C@]4(O)CCN(C)C4=O)on3)n2)n1 [Example 348, (R)-3-(3-(6-(2-(((S)-1-Fluoropropan-2-yl)amino)pyrimidin-4-yl)pyridin-2-yl)isoxazol-5-yl)-3-hydroxy-1-methylpyrrolidin-2-one] | 50 to 500 |
| CCn1cc(Nc2nccc(-c3cccc(-c4cc([C@]5(O)CCN(C)C5=O)on4)n3)n2)c(C)n1 [Example 250, (R)-3-(3-(6-(2-((1-Ethyl-3-methyl-1H-pyrazol-4-yl)amino)pyrimidin-4-yl)pyridin-2-yl)isoxazol-5-yl)-3-hydroxy-1-methylpyrrolidin-2-one] | < 50 |
| C[C@H](CC(F)(F)F)Nc1nccc(-c2cccc(-c3cc([C@]4(O)CCN(C)C4=O)on3)n2)n1 (single isomer, unassigned) [Example 438, (R)-3-Hydroxy-1-methyl-3-(3-(6-(2-(((*R)-4,4,4-trifluorobutan-2-yl)amino)pyrimidin-4-yl)pyridin-2-yl)isoxazol-5-yl)pyrrolidin-2-one] | 50 to 500 |
| CN1CC[C@@](O)(c2cn(-c3cccc(-c4ccnc(Nc5cnn(CC(F)(F)F)c5)n4)n3)nn2)C1=O [Example 403, (R)-3-Hydroxy-1-methyl-3-(1-(6-(2-((1-(2,2,2-trifluoroethyl)-1H-pyrazol-4-yl)amino)pyrimidin-4-yl)pyridin-2-yl)-1H-1,2,3-triazol-4-yl)pyrrolidin-2-one] | < 50 |
| CO[C@@H](C)CNc1nccc(-c2cccc(-c3cc([C@]4(O)CCN(C)C4=O)on3)n2)n1 [Example 362, (R)-3-Hydroxy-3-(3-(6-(2-(((S)-2-methoxypropyl)amino)pyrimidin-4-yl)pyridin-2-yl)isoxazol-5-yl)-1-methylpyrrolidin-2-one] | 50 to 500 |
| CCS(=O)(=O)N1CCC(Nc2nccc(-c3cccc(-c4cc([C@]5(O)CCN(C)C5=O)on4)n3)n2)CC1 [Example 470, (R)-3-(3-(6-(2-((1-(Ethylsulfonyl)piperidin-4-yl)amino)pyrimidin-4-yl)pyridin-2-yl)isoxazol-5-yl)-3-hydroxy-1-methylpyrrolidin-2-one] | < 50 |
| CN1CC[C@@](O)(c2cc(-c3cccc(-c4ccnc(Nc5cnn(C)c5)n4)n3)no2)C1=O [Example 52, (R)-3-Hydroxy-1-methyl-3-(3-(6-(2-((1-methyl-1H-pyrazol-4-yl)amino)pyrimidin-4-yl)pyridin-2-yl)isoxazol-5-yl)pyrrolidin-2-one] | < 50 |
| CN1CC[C@@](O)(c2cc(-c3cncc(-c4ccnc(Nc5ccn(C)n5)n4)n3)no2)C1=O [Example 95, (R)-3-Hydroxy-1-methyl-3-(3-(6-(2-((1-methyl-1H-pyrazol-3-yl)amino)pyrimidin-4-yl)pyrazin-2-yl)isoxazol-5-yl)pyrrolidin-2-one] | 50 to 500 |
| CN1CCC(n2cc(Nc3nccc(-c4cccc(-c5cc([C@@]6(O)C(=O)N(C)CC6(F)F)on5)n4)n3)cn2)CC1 [Example 10, (R)-4,4-Difluoro-3-hydroxy-1-methyl-3-(3-(6-(2-((1-(1-methylpiperidin-4-yl)-1H-pyrazol-4-yl)amino)pyrimidin-4-yl)pyridin-2-yl)isoxazol-5-yl)pyrrolidin-2-one] | 50 to 500 |
| CN1CC[C@@](O)(c2cc(-c3cccc(-c4ccnc(Nc5cnn6c5COCC6)n4)n3)no2)C1=O [Example 302, (R)-3-(3-(6-(2-((6,7-Dihydro-4H-pyrazolo[5,1-c][1,4]oxazin-3-yl)amino)pyrimidin-4-yl)pyridin-2-yl)isoxazol-5-yl)-3-hydroxy-1-methylpyrrolidin-2-one] | < 50 |
| C[C@H](Nc1nccc(-c2cccc(-c3cc([C@]4(O)CCN(C)C4=O)on3)n2)n1)C(=O)N(C)c1ccccc1 [Example 181, (S)-2-((4-(6-(5-((R)-3-Hydroxy-1-methyl-2-oxopyrrolidin-3-yl)isoxazol-3-yl)pyridin-2-yl)pyrimidin-2-yl)amino)-N-methyl-N-phenylpropanamide] | > 500 |
| CN1CC[C@@](O)(c2cc(-c3cccc(-c4ccnc(Nc5ccn(C)n5)n4)n3)n(C)n2)C1=O (single isomer, unassigned) [Example 166, (*R)-3-Hydroxy-1-methyl-3-(1-methyl-5-(6-(2-((1-methyl-1H-pyrazol-3-yl)amino)pyrimidin-4-yl)pyridin-2-yl)-1H-pyrazol-3-yl)pyrrolidin-2-one] | > 500 |
| CN1CC[C@@](O)(c2cc(-c3cccc(-c4ccnc(Nc5cnn6c5OCCC6)n4)n3)no2)C1=O [Example 194, (R)-3-(3-(6-(2-((6,7-Dihydro-5H-pyrazolo[5,1-b][1,3]oxazin-3-yl)amino)pyrimidin-4-yl)pyridin-2-yl)isoxazol-5-yl)-3-hydroxy-1-methylpyrrolidin-2-one] | < 50 |
| C[C@@H]1Cn2nc(Nc3nccc(-c4cccc(-c5cc([C@]6(O)CCN(C)C6=O)on5)n4)n3)cc2CO1 (single isomer, unassigned) [Example 114, (R)-3-Hydroxy-1-methyl-3-(3-(6-(2-(((*R)-6-methyl-6,7-dihydro-4H-pyrazolo[5,1-c][1,4]oxazin-2-yl)amino)pyrimidin-4-yl)pyridin-2-yl)isoxazol-5-yl)pyrrolidin-2-one] | < 50 |
| CN1CC[C@@](O)(c2cc(-c3cccc(-c4ccnc(NCc5cnn(C)c5)n4)n3)no2)C1=O [Example 368, (R)-3-Hydroxy-1-methyl-3-(3-(6-(2-(((1-methyl-1H-pyrazol-4-yl)methyl)amino)pyrimidin-4-yl)pyridin-2-yl)isoxazol-5-yl)pyrrolidin-2-one] | 50 to 500 |
| Cc1nn(C)c(C)c1Nc1nccc(-c2cccc(-c3cc([C@]4(O)CCN(C)C4=O)on3)n2)n1 [Example 289, (R)-3-Hydroxy-1-methyl-3-(3-(6-(2-((1,3,5-trimethyl-1H-pyrazol-4-yl)amino)pyrimidin-4-yl)pyridin-2-yl)isoxazol-5-yl)pyrrolidin-2-one] | > 500 |
| C[C@H](Nc1nccc(-c2cccc(-c3cc([C@]4(O)CCN(C)C4=O)no3)n2)n1)c1cnn(C)c1 (single isomer, unassigned) [Example 400] | > 500 |
| CN1CC[C@@](O)(c2cc(-c3cccc(-c4ccnc(Nc5cn(CC(F)F)nc5OC5CC5)n4)n3)no2)C1=O [Example 28, (R)-3-(3-(6-(2-((3-Cyclopropoxy-1-(2,2-difluoroethyl)-1H-pyrazol-4-yl)amino)pyrimidin-4-yl)pyridin-2-yl)isoxazol-5-yl)-3-hydroxy-1-methylpyrrolidin-2-one] | < 50 |
| CN1CC[C@@](O)(c2cc(-c3cccc(-c4ccnc(Nc5cnc6cccnn56)n4)n3)no2)C1=O [Example 218, (R)-3-Hydroxy-3-(3-(6-(2-(imidazo[1,2-b]pyridazin-3-ylamino)pyrimidin-4-yl)pyridin-2-yl)isoxazol-5-yl)-1-methylpyrrolidin-2-one] | > 500 |
| C[C@H](F)CCNc1nccc(-c2cccc(-c3cc([C@]4(O)CCN(C)C4=O)on3)n2)n1 [Example 344, (R)-3-(3-(6-(2-(((S)-3-Fluorobutyl)amino)pyrimidin-4-yl)pyridin-2-yl)isoxazol-5-yl)-3-hydroxy-1-methylpyrrolidin-2-one] | 50 to 500 |
| CN1CC[C@](O)(c2cc(-c3cccc(-c4ccnc(Nc5cnn(C)c5Cl)n4)n3)n[nH]2)C1=O (single isomer, unassigned) [Example 105] | 50 to 500 |
| CN1CC[C@@](O)(c2cc(-c3cccc(-c4ccnc(Nc5nnn(C)n5)n4)n3)no2)C1=O [Example 267, (R)-3-Hydroxy-1-methyl-3-(3-(6-(2-((2-methyl-2H-tetrazol-5-yl)amino)pyrimidin-4-yl)pyridin-2-yl)isoxazol-5-yl)pyrrolidin-2-one] | 50 to 500 |
| CN1CC[C@@](O)(c2cc(-c3cccc(-c4ccnc(Nc5cn(C)cn5)n4)n3)no2)C1=O [Example 323, (R)-3-Hydroxy-1-methyl-3-(3-(6-(2-((1-methyl-1H-imidazol-4-yl)amino)pyrimidin-4-yl)pyridin-2-yl)isoxazol-5-yl)pyrrolidin-2-one] | 50 to 500 |
| CN1CC[C@@](O)(c2cc(-c3cccc(-c4ccnc(Nc5cn(C)nc5OCCO)n4)n3)no2)C1=O [Example 232, (R)-3-Hydroxy-3-(3-(6-(2-((3-(2-hydroxyethoxy)-1-methyl-1H-pyrazol-4-yl)amino)pyrimidin-4-yl)pyridin-2-yl)isoxazol-5-yl)-1-methylpyrrolidin-2-one] | 50 to 500 |
| Cc1nscc1Nc1nccc(-c2cccc(-c3cc([C@]4(O)CCN(C)C4=O)on3)n2)n1 [Example 229, (R)-3-Hydroxy-1-methyl-3-(3-(6-(2-((3-methylisothiazol-4-yl)amino)pyrimidin-4-yl)pyridin-2-yl)isoxazol-5-yl)pyrrolidin-2-one] | < 50 |
| CN1CC[C@@](O)(c2cc(-c3cccc(-c4ccnc(Nc5cnn([C@H]6CCN(C7COC7)C6)c5)n4)n3)no2)C1=O (single isomer, unassigned) [Example 140] | < 50 |
| [2H]C1([2H])N(C)C(=O)[C@](O)(c2cc(-c3cccc(-c4ccnc(Nc5ccn(C)n5)n4)n3)no2)C1([2H])[2H] [Example 8, (R)-3-Hydroxy-1-methyl-3-(3-(6-(2-((1-methyl-1H-pyrazol-3-yl)amino)pyrimidin-4-yl)pyridin-2-yl)isoxazol-5-yl)pyrrolidin-2-one-4,4,5,5-d4] | < 50 |
| Cc1nccc(Nc2nccc(-c3cccc(-c4cc([C@]5(O)CCN(C)C5=O)on4)n3)n2)n1 [Example 298, (R)-3-Hydroxy-1-methyl-3-(3-(6-(2-((2-methylpyrimidin-4-yl)amino)pyrimidin-4-yl)pyridin-2-yl)isoxazol-5-yl)pyrrolidin-2-one] | < 50 |
